# Patent US20130310387A1, “Monocyclic Heteroaryl Cycloalkyldiamine Derivatives” (NOVARTIS AG, priority 2012, published 2013)
# Tests used:
# [1] = target: Syk (2-635) (KSYK_HUMAN, P43405) (Homo sapiens, UniProt P43405); assay: Syk enzyme assay (chip based microfluidic mobility shift assay); type: biochemical; settings: 4 μM ATP, 4 nM Syk, 60 minutes at 30° C.
# Method: A number of compounds of the present invention were assayed in a chip based microfluidic mobilitiy shift assay. All assays were performed in 384 well microtiter plates. Each assay plate contained 8-point serial dilutions for 40 test compounds, as well as four 8-point serial dilutions of staurosporine as reference compound, plus 16 high- and 16 low controls. Liquid handling and incubation steps were done on a Thermo CatX workstation equipped with a Innovadyne Nanodrop Express. Between pipetting steps, tips were cleaned in wash cycles using wash buffer. The assay plates were prepared by addition of 50 nl per well of compound solution in 90% DMSO. […] Kinase reactions were incubated at 30° C. for 60 minutes and subsequently terminated by addition of 16 μl per well of stop solution (100 mM HEPES pH 7.5, 5% DMSO, 0.1% Caliper coating reagent, 10 mM EDTA, and 0.015% Brij35). Plates with terminated kinase reactions were transferred to the Caliper LC3000 workstations for reading. Phosphorylated and unphosphorylated peptides were separated using the Caliper microfluidic mobility shift technology. Briefly, samples from terminated kinase reactions were applied to the chip. Analytes are transported through the chip by constant buffer flow and the migration of the substrate peptide is monitored by the fluorescence signal of its label. Phosphorylated peptide (product) and unphosphorylated peptide (substrate) are separated in an electric field by their charge/mass ratio. Kinase activities were calculated from the amounts of formed phospho-peptide. […] values were determined from percent inhibition values at different compound concentrations by non-linear regression analysis.
# Test compounds were dissolved in DMSO (10 mM) and transferred into 1.4 mL flat bottom or V-shaped Matrix tubes carrying a unique 2D matrix. The stock solutions were stored at […] if not used immediately. For the test procedure the vials were defrosted and identified by a scanner whereby a working sheet was generated that guided the subsequent working steps.
# Compound dilutions were made in 96 well plates. This format enabled the assay of maximally 40 individual test compounds at 8 concentrations (single points) including 4 reference compounds. The dilution protocol included the production of “pre-dilution plates”, “master plates” and “assay plates”.
# 96 polypropylene well plates were used as pre-dilution plates. A total of 4 pre-dilution plates were prepared including 10 test compounds each on the plate positions A1-A10, one standard compound at A11 and one DMSO control at A12. All dilution steps were done on a HamiltonSTAR robot.
# 30 μL of individual compound dilutions including standard compound and controls of the 4 “pre-dilution plates” were transferred into a 384 “master plate” including the following concentrations 1′810, 362, 72.5, […], 14.5, 2.9, 0.58 and 0.12 μM, respectively in 90% of DMSO.
# Identical “assay plates” were then prepared by pipetting […] each of compound dilutions of the “master plates” into 384-well “assay plates” by means of a HummingBird 384-channel dispenser. These plates were used directly for the assay which was performed in a total volume of 9.05 μL. This led to a final compound concentration of 10, 2.0, 0.4, 0.08, 0.016, 0.0032, 0.00064 and 0.000128 μM and a final DMSO concentration of 0.5% in the assay.
# [2] = tested on: SLP-76 phosphorylation in human whole blood monocytes; assay: FcR stimulation-induced SLP-76 phosphorylation in human whole blood monocytes; type: cell-based; settings: Monocyte, 5 min, anti CD32 stimulation 5 min, flow cytometry, read-out: Fc Recepor stimulation induced SLP-76 phosphorylation in human whole blood monocytes, IC50
# From the text: After lysis of erythrocytes and washings, the cell pellet was permeabilized with ice-cold methanol 90%. The permeabilized cells were washed and stained with anti CD14 (eBioscience) to detect monocytes and anti P-SLP76 ([…]) (BD Biosciences) and quantified by flow cytometry.
# OCI-Ly10 cells = assay: B-cell lymphoma cell proliferation (WST-1 assay), OCI-Ly10; type: cell-based; settings: Homo sapiens, 72 h; OCI-Ly10, 3 days of incubation
# Method: Cell proliferation was determined using the WST-1 assay (Roche, Mannheim, Germany), which measures the metabolic activity of the cells. Briefly, 5×10^5 TMD-8, OCI-Ly3, and OCI-Ly10 cells/well and 10×10^5 HBL-1 cells/well were seeded in triplicate in 96-well plates and were incubated with various concentrations of compounds to be tested for 3 days. The cell proliferation reagent WST-1 (10 μl/well) was added to the cells for 1-2 hours depending on the cell type which were cultured in 200 μl of medium. The absorbance was then measured with an enzyme-linked immunosorbent assay plate reader at a wavelength of 450 nm.
# TMD-8 cells = assay: cells; settings: Homo sapiens, TMD8, 96 h
smiles,measurement,setting,value
"NC(=O)c1nnc(N[C@@H]2CCCC[C@@H]2N)nc1Nc1cccc2cc[nH]c12 [Example 1.1, 3-((1R,2S)-2-Amino-cyclohexylamino)-5-(1H-indol-7-ylamino)-[1,2,4]triazine-6-carboxylic acid amide]",IC50,[1],23 nM
same,IC50,[2],378 nM
same,GI50,OCI-Ly10 cells,25 nM
same,GI50,TMD-8 cells,281 nM
